As usually defined, the EC50 is the concentration giving half of the maximal effect.

The target of this assay is NAMPT enzyme (Homo sapiens (Human), UniProt P43490). Put plainly: Enzyme Assay and NMN Detection (NAMPT reaction, fluorescence detection of NMN). The assay is classed as biochemical. Particulars: NAMPT activation, NMN formation. The essentials:
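NMN formed was read at ex380/em460 after acetophenone/KOH derivatization and formic acid addition, using a same-day calibration curve. Final conditions: NAMPT 16 nM, nicotinamide 5 uM, PRPP 6.25 uM, ATP 120 uM, pyrophosphatase 0.04 U/ml, pH 7.5 HEPES buffer with MgCl2 and TCEP, 2 h at room temperature.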

Chain of NAMPT enzyme (P43490 whole entry, species assumed): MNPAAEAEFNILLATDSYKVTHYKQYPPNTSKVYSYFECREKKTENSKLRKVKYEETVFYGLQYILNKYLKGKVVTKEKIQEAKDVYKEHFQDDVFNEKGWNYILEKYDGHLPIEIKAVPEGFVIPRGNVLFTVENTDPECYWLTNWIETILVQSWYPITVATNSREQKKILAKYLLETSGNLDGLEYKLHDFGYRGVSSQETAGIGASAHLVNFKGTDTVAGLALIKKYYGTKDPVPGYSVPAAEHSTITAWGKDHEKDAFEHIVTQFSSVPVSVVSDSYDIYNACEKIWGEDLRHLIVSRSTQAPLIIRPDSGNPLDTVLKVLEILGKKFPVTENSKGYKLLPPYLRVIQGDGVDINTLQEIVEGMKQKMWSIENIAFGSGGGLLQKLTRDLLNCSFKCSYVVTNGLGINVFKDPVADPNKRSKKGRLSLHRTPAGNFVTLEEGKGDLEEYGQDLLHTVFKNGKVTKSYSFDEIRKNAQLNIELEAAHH

The compound `CN(C)c1ccccc1CNS(=O)(=O)c1ccc(NC(=O)NCc2ccncc2)cc1` [N-(2-Dimethylamino-benzyl)-4-(3-pyridin-4-ylmethyl-ureido)-benzenesulfonamide] gave a half-maximal effective concentration (EC50) (Table B-2) of under 0.1 µM.
Still for that read-out and setting: under `CN(C)CCNS(=O)(=O)c1ccc(NC(=O)NCc2ccncc2)cc1` [N-(2-Dimethylamino-ethyl)-4-(3-pyridin-4-ylmethyl-ureido)-benzenesulfonamide] stands 0.1 to 2 µM; under `CN(Cc1ccccc1F)S(=O)(=O)c1ccc(NC(=O)NCc2ccncc2)cc1` [N-(2-Fluoro-benzyl)-N-methyl-4-(3-pyridin-4-ylmethyl-ureido)-benzenesulfonamide], under 0.1 µM; under `O=C(NCc1ccncc1)Nc1ccc(S(=O)(=O)NCCO)cc1` [N-(2-Hydroxy-ethyl)-4-(3-pyridin-4-ylmethyl-ureido)-benzenesulfonamide], 2 to 5 µM.
With `CN(CCO)S(=O)(=O)c1ccc(NC(=O)NCc2ccncc2)cc1` [N-(2-Hydroxy-ethyl)-N-methyl-4-(3-pyridin-4-ylmethyl-ureido)-benzenesulfonamide], under “Table B-2”, the EC50 lay in the range of 0.1 to 2 µM.
Compound `COc1ccccc1CNS(=O)(=O)c1ccc(NC(=O)NCc2cn[nH]c2)cc1` [N-(2-Methoxy-benzyl)-4-[3-(1H-pyrazol-4-ylmethyl)-ureido]-benzenesulfonamide] came in with a concentration for a half-maximal effect (EC50) (Table B-1) of under 0.1 µM.
Turning to `COc1ccccc1CN(C)S(=O)(=O)c1ccc(NC(=O)NCc2ccncc2)cc1` [N-(2-Methoxy-benzyl)-N-methyl-4-(3-pyridin-4-ylmethyl-ureido)-benzenesulfonamide], the half-maximal effective concentration (EC50) (Table B-2) is under 0.1 µM.
Same read-out and setting: under `COCCNS(=O)(=O)c1ccc(NC(=O)NCc2ccncc2)cc1` [N-(2-Methoxy-ethyl)-4-(3-pyridin-4-ylmethyl-ureido)-benzenesulfonamide] stands 0.1 to 2 µM; under `COc1ccccc1NS(=O)(=O)c1ccc(NC(=O)NCc2ccncc2)cc1` [N-(2-Methoxy-phenyl)-4-(3-pyridin-4-ylmethyl-ureido)-benzenesulfonamide], 0.1 to 2 µM.
Consider `Cc1ccccc1CNS(=O)(=O)c1ccc(NC(=O)NCc2ccncc2)cc1` [N-(2-Methyl-benzyl)-4-(3-pyridin-4-ylmethyl-ureido)-benzenesulfonamide], for which, where the note is “Table B-2”, the EC50 lay within 0.1 to 2 µM.
The same measure, in the same setting: as for `O=C(NCc1ccncc1)Nc1ccc(S(=O)(=O)NCCN2CCOCC2)cc1` [N-(2-Morpholin-4-yl-ethyl)-4-(3-pyridin-4-ylmethyl-ureido)-benzenesulfonamide], the figure is 0.1 to 2 µM; as for `O=C(NCc1ccncc1)Nc1ccc(S(=O)(=O)NCCN2CCCCC2)cc1` [N-(2-Piperidin-1-yl-ethyl)-4-(3-pyridin-4-ylmethyl-ureido)-benzenesulfonamide], 2 to 5 µM.
As for `O=C(NCc1ccncc1)Nc1ccc(C(=O)NCc2ccccc2Cl)cc1` [N-(2-chlorobenzyl)-4-(3-(pyridin-4-ylmethyl)ureido)benzamide], for the setting “Table B-2”, the EC50 is over 20 µM.
On to `O=C(NCc1ccncc1)Nc1ccc(C(=O)Nc2ccccc2Cl)cc1` [N-(2-chlorophenyl)-4-(3-(pyridin-4-ylmethyl)ureido)benzamide], for which the EC50 (Table B-2) lay within 0.1 to 2 µM.
Still for that read-out and setting: under `O=C(NCc1ccncc1)Nc1ccc(C(=O)NCc2ccccc2F)cc1` [N-(2-fluorobenzyl)-4-(3-(pyridin-4-ylmethyl)ureido)benzamide] stands 2 to 5 µM; under `O=C(NCc1ccncc1)Nc1ccc(S(=O)(=O)NCc2ccccc2F)cc1` [N-(2-fluorobenzyl)-4-(3-(pyridin-4-ylmethyl)ureido)benzenesulfonamide], 0.1 to 2 µM.
As for `O=C(NCc1ccncc1)Nc1ccc(C(=O)Nc2ccccc2F)cc1` [N-(2-fluorophenyl)-4-(3-(pyridin-4-ylmethyl)ureido)benzamide], the half-maximal effective concentration (EC50) (Table B-2) was in the range of 0.1 to 2 µM.
Same read-out and setting: under `O=C(NCc1ccncc1)Nc1ccc(C(=O)NCCO)cc1` [N-(2-hydroxyethyl)-4-(3-(pyridin-4-ylmethyl)ureido)benzamide] stands over 20 µM; under `COc1ccccc1CNC(=O)c1ccc(NC(=O)NCc2ccncc2)cc1` [N-(2-methoxybenzyl)-4-(3-(pyridin-4-ylmethyl)ureido)benzamide], over 20 µM; under `COc1ccccc1CNS(=O)(=O)c1ccc(NC(=O)NCc2ccncc2)cc1` [N-(2-methoxybenzyl)-4-(3-(pyridin-4-ylmethyl)ureido)benzenesulfonamide], 0.1 to 2 µM.
Same read-out and setting: under `COCCNC(=O)c1ccc(NC(=O)NCc2ccncc2)cc1` [N-(2-methoxyethyl)-4-(3-(pyridin-4-ylmethyl)ureido)benzamide] stands 2 to 5 µM.
Same read-out and setting: as for `COc1ccccc1NC(=O)c1ccc(NC(=O)NCc2ccncc2)cc1` [N-(2-methoxyphenyl)-4-(3-(pyridin-4-ylmethyl)ureido)benzamide], the figure is 0.1 to 2 µM; as for `Cc1ccccc1CNC(=O)c1ccc(NC(=O)NCc2ccncc2)cc1` [N-(2-methylbenzyl)-4-(3-(pyridin-4-ylmethyl)ureido)benzamide], 0.1 to 2 µM.
In turn, `O=C(NCc1ccncc1)Nc1ccc(C(=O)NCCN2CCOCC2)cc1` [N-(2-morpholinoethyl)-4-(3-(pyridin-4-ylmethyl)ureido)benzamide] registered an EC50 (Table B-2) of 0.1 to 2 µM.
Still for that read-out and setting: as for `COc1ccc(NC(=O)c2ccc(NC(=O)NCc3ccncc3)cc2)cc1OC` [N-(3,4-dimethoxyphenyl)-4-(3-(pyridin-4-ylmethyl)ureido)benzamide], the figure is 0.1 to 2 µM; as for `Cc1ccc(NC(=O)c2ccc(NC(=O)NCc3ccncc3)cc2)cc1C` [N-(3,4-dimethylphenyl)-4-(3-(pyridin-4-ylmethyl)ureido)benzamide], 0.1 to 2 µM; as for `CN(C)c1cccc(NC(=O)c2ccc(NC(=O)NCc3ccncc3)cc2)c1` [N-(3-(dimethylamino)phenyl)-4-(3-(pyridin-4-ylmethyl)ureido)benzamide], 0.1 to 2 µM.
The same measure, in the same setting: as for `O=C(NCc1ccncc1)Nc1ccc(S(=O)(=O)NCc2cccc(Cl)c2)cc1` [N-(3-Chloro-benzyl)-4-(3-pyridin-4-ylmethyl-ureido)-benzenesulfonamide], the figure is 0.1 to 2 µM.
On to `O=C(NCc1cn[nH]c1)Nc1ccc(C(=O)Nc2cccc(Cl)c2)cc1` [N-(3-Chloro-phenyl)-4-[3-(1H-pyrazol-4-ylmethyl)-ureido]-benzamide], for which the concentration for a half-maximal effect (EC50) (Table B-1) is 0.1 to 2 µM.
`N#Cc1cccc(CNS(=O)(=O)c2ccc(NC(=O)NCc3ccncc3)cc2)c1` [N-(3-Cyano-benzyl)-4-(3-pyridin-4-ylmethyl-ureido)-benzenesulfonamide] showed an EC50 (Table B-2) of 0.1 to 2 µM.
On the same count and under the same terms, under `CN(C)c1cccc(CNS(=O)(=O)c2ccc(NC(=O)NCc3ccncc3)cc2)c1` [N-(3-Dimethylamino-benzyl)-4-(3-pyridin-4-ylmethyl-ureido)-benzenesulfonamide] stands 0.1 to 2 µM.
`O=C(NCc1cn[nH]c1)Nc1ccc(S(=O)(=O)NCc2cccc(F)c2)cc1` [N-(3-Fluoro-benzyl)-4-[3-(1H-pyrazol-4-ylmethyl)-ureido]-benzenesulfonamide] registered a concentration giving a half-maximal response (EC50) (Table B-4) of 0.1 to 2 µM.
`COc1cccc(CNS(=O)(=O)c2ccc(NC(=O)NCc3ccncc3)cc2)c1` [N-(3-Methoxy-benzyl)-4-(3-pyridin-4-ylmethyl-ureido)-benzenesulfonamide] registered a concentration giving a half-maximal response (EC50) (Table B-2) of 0.1 to 2 µM.
For the setting “Table B-1”, `COc1cccc(CNS(=O)(=O)c2ccc(NC(=O)NCc3cn[nH]c3)cc2)c1` [N-(3-Methoxy-benzyl)-4-[3-(1H-pyrazol-4-ylmethyl)-ureido]-benzenesulfonamide] returned an EC50 of 0.1 to 2 µM.
Consider `COc1cccc(NS(=O)(=O)c2ccc(NC(=O)NCc3ccncc3)cc2)c1` [N-(3-Methoxy-phenyl)-4-(3-pyridin-4-ylmethyl-ureido)-benzenesulfonamide], for which the EC50 (Table B-2) fell in the range of 0.1 to 2 µM.
The same measure, in the same setting: under `COCCCNS(=O)(=O)c1ccc(NC(=O)NCc2ccncc2)cc1` [N-(3-Methoxy-propyl)-4-(3-pyridin-4-ylmethyl-ureido)-benzenesulfonamide] stands 0.1 to 2 µM; under `Cc1cccc(CNS(=O)(=O)c2ccc(NC(=O)NCc3ccncc3)cc2)c1` [N-(3-Methyl-benzyl)-4-(3-pyridin-4-ylmethyl-ureido)-benzenesulfonamide], 0.1 to 2 µM; under `O=C(NCc1ccncc1)Nc1ccc(C(=O)NCc2cccc(Cl)c2)cc1` [N-(3-chlorobenzyl)-4-(3-(pyridin-4-ylmethyl)ureido)benzamide], over 20 µM.
Still for that read-out and setting: as for `O=C(NCc1ccncc1)Nc1ccc(C(=O)Nc2cccc(Cl)c2)cc1` [N-(3-chlorophenyl)-4-(3-(pyridin-4-ylmethyl)ureido)benzamide], the figure is 0.1 to 2 µM; as for `CCOCCCNC(=O)c1ccc(NC(=O)NCc2ccncc2)cc1` [N-(3-ethoxypropyl)-4-(3-(pyridin-4-ylmethyl)ureido)benzamide], 0.1 to 2 µM.
On the same count and under the same terms, under `O=C(NCc1ccncc1)Nc1ccc(C(=O)NCc2cccc(F)c2)cc1` [N-(3-fluorobenzyl)-4-(3-(pyridin-4-ylmethyl)ureido)benzamide] stands over 20 µM.
Under “Table B-2”, `O=C(NCc1ccncc1)Nc1ccc(S(=O)(=O)NCc2cccc(F)c2)cc1` [N-(3-fluorobenzyl)-4-(3-(pyridin-4-ylmethyl)ureido)benzenesulfonamide] showed an EC50 of 0.1 to 2 µM.
Take `O=C(NCc1ccncc1)Nc1ccc(C(=O)Nc2cccc(F)c2)cc1` [N-(3-fluorophenyl)-4-(3-(pyridin-4-ylmethyl)ureido)benzamide]: the EC50 (Table B-2) fell in the range of 0.1 to 2 µM.
`COc1cccc(CNC(=O)c2ccc(NC(=O)NCc3ccncc3)cc2)c1` [N-(3-methoxybenzyl)-4-(3-(pyridin-4-ylmethyl)ureido)benzamide] displayed an EC50 (Table B-2) of over 20 µM.
The same measure, in the same setting: under `COc1cccc(NC(=O)c2ccc(NC(=O)NCc3ccncc3)cc2)c1` [N-(3-methoxyphenyl)-4-(3-(pyridin-4-ylmethyl)ureido)benzamide] stands 0.1 to 2 µM; under `Cc1cccc(CNC(=O)c2ccc(NC(=O)NCc3ccncc3)cc2)c1` [N-(3-methylbenzyl)-4-(3-(pyridin-4-ylmethyl)ureido)benzamide], over 20 µM.

The values are drawn from US11452717B2, “Small molecule activators of nicotinamide phosphoribosyltransferase (NAMPT) and uses thereof” (Sanford Burnham Prebys Medical Discovery Institute, priority 2017, dated 2022).
